In PubChem BioAssay (NCI) one finds GI50 and TGI data, which are given here for nine compounds.

Test systems include HCC-2998 colon; HL-60(TB) leukemia; LOX IMVI melanoma; OVCAR-3 ovarian; OVCAR-5 ovarian; OVCAR-8 ovarian; SN12C renal; T-47D breast; U251 CNS; UO-31 renal.
Holding throughout (experiment): growth of human tumour cells (NCI), 48 h

Structures are written as SMILES. Several values for one entry are separate records, joined by “and”; a condition that tells them apart may be missing. Identical values can stand only once.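 Interpolation was linear, between the two tested concentrations surrounding the appropriate level; five concentrations were tested over 48 hours in 96-well plates. Here, GI50 denotes the concentration required for 50% inhibition of growth. At the TGI there is no net growth.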 Some results are limits rather than exact numbers.

In the case of `CN1CCC(n2cnc(-c3ccc(F)cc3)c2-c2ccnc(N)n2)CC1`, the GI50 with HCC-2998 colon was 8.98 µM; with HL-60(TB) leukemia it was above 25 µM; in the test on LOX IMVI melanoma, 6.95 µM; with OVCAR-3 ovarian, 11 µM; in the test with OVCAR-5 ovarian, 13.8 µM; in the test with OVCAR-8 ovarian, 6.3 µM. In addition, the GI50 in the test with SN12C renal was 6.43 µM; in the test on T-47D breast it was 16 µM; in the test on U251 CNS, 8.53 µM; in the test with UO-31 renal it was 2.55 µM. Moreover, the TGI with HCC-2998 colon, in the test with HL-60(TB) leukemia, with LOX IMVI melanoma, with OVCAR-3 ovarian, in the test on OVCAR-5 ovarian and with OVCAR-8 ovarian was above 25 µM throughout. Further, the TGI in the test with SN12C renal was above 25 µM; in the test with T-47D breast, above 25 µM; in the test with U251 CNS it was above 25 µM; in the test with UO-31 renal it was 16.1 µM.

Take `C#CCOc1cccc(Nc2ncnc3c(NC(=O)CCl)cccc23)c1`: the GI50 with HCC-2998 colon was 17.7 µM; in the test with HL-60(TB) leukemia it was 17.5 µM; in the test with LOX IMVI melanoma, 1.7 µM; in the test with OVCAR-3 ovarian it was 16.5 µM; in the test on OVCAR-5 ovarian, 21.3 µM; in the test on OVCAR-8 ovarian, 31.6 µM. The GI50 in the test on SN12C renal is 29.5 µM; in the test with T-47D breast, 15.7 µM; in the test with U251 CNS, 19.4 µM; in the test on UO-31 renal, 15.5 µM. In addition, the TGI with HCC-2998 colon was 34 µM; in the test on HL-60(TB) leukemia, 40.6 µM; with LOX IMVI melanoma, 3.47 µM; with OVCAR-3 ovarian, 31.7 µM; with OVCAR-5 ovarian, 57 µM; in the test on OVCAR-8 ovarian it was above 100 µM. In addition, the TGI with SN12C renal is above 100 µM; with T-47D breast, 39.3 µM; in the test with U251 CNS, 38.1 µM; in the test with UO-31 renal, 39.2 µM.

`Cc1c(C2=C(c3cn(C)c4ccccc34)C(=O)NC2=O)c2ccccc2n1C`: the GI50 in the test on HCC-2998 colon was 24.9 µM; in the test on HL-60(TB) leukemia, 0.962 µM; in the test on LOX IMVI melanoma, 5.3 µM; with OVCAR-3 ovarian it was 0.882 µM; with OVCAR-5 ovarian it was above 25 µM; in the test with OVCAR-8 ovarian it was 10.8 µM. Moreover, the GI50 in the test on SN12C renal was 15.5 µM; with T-47D breast, 4.07 µM; with U251 CNS, 2.01 µM; in the test with UO-31 renal it was 1.74 µM. In addition, the TGI in the test on HCC-2998 colon was above 25 µM; with HL-60(TB) leukemia, above 25 µM; in the test with LOX IMVI melanoma, above 25 µM; in the test with OVCAR-3 ovarian, 4.73 µM; in the test with OVCAR-5 ovarian, above 25 µM; with OVCAR-8 ovarian it was above 25 µM. The TGI in the test with SN12C renal, in the test on T-47D breast, in the test on U251 CNS and with UO-31 renal was above 25 µM throughout.

As to `CN1CCN(Cc2ccc(NC(=O)c3[nH]ncc3Nc3ncnc4sc5c(c34)CCCC5)cc2)CC1`, the GI50 in the test with HCC-2998 colon was 0.535 µM; in the test on HL-60(TB) leukemia, 0.269 µM; in the test with LOX IMVI melanoma, 0.289 µM; in the test on OVCAR-3 ovarian, 0.22 µM; with OVCAR-5 ovarian, 0.383 µM; in the test on OVCAR-8 ovarian it was 0.413 µM. Further, the GI50 in the test with SN12C renal is 0.0425 µM; with T-47D breast, 0.457 µM; in the test with UO-31 renal it was 0.356 µM. Besides, the TGI in the test with HCC-2998 colon came out at 2.07 µM; in the test with HL-60(TB) leukemia, 0.804 µM; with LOX IMVI melanoma, 1.71 µM; with OVCAR-3 ovarian it was 1.34 µM; in the test on OVCAR-5 ovarian it was 1.73 µM; with OVCAR-8 ovarian, 2.52 µM. Further, the TGI worked out at 1.22 µM in the test with SN12C renal, 13.5 µM in the test with T-47D breast and 1.75 µM in the test with UO-31 renal.

Consider `CCN1C(=O)N(CC)C2C1NN=c1s/c(=C3\C(=O)N(CCc4ccccc4)c4ccccc43)c(=O)n12` (configuration not stated), for which the GI50 in the test on HCC-2998 colon was 1.15 µM; in the test with HL-60(TB) leukemia, 0.538 µM; in the test with LOX IMVI melanoma, 0.527 µM; with OVCAR-3 ovarian, 0.291 µM; in the test on OVCAR-5 ovarian, 0.927 µM; with OVCAR-8 ovarian, 0.74 µM. Besides, the GI50 is 1.34 µM in the test with SN12C renal, 1.19 µM in the test with T-47D breast, 0.413 µM in the test with U251 CNS and 1.03 µM in the test on UO-31 renal. In addition, the TGI is above 25 µM in the test with HCC-2998 colon; 1.56 µM in the test on HL-60(TB) leukemia; 4.94 µM with LOX IMVI melanoma; 0.901 µM with OVCAR-3 ovarian; above 43.1 µM in the test on OVCAR-8 ovarian; above 23.9 µM with T-47D breast. Further, the values for the TGI in the test with U251 CNS and with UO-31 renal were 15.6 µM and above 35.2 µM, respectively.

For the compound `Cn1cncc1CC1COC(=O)C1C(O)c1ccccc1` (configuration not stated), the TGI with HCC-2998 colon, with HL-60(TB) leukemia, in the test on LOX IMVI melanoma, in the test with OVCAR-3 ovarian, in the test on OVCAR-5 ovarian and in the test with OVCAR-8 ovarian was above 100 µM throughout. The TGI in the test with SN12C renal, in the test on T-47D breast and in the test with U251 CNS was above 100 µM in each case.

As for `CN1CCN(CC(O)COc2c(Br)c(Br)c(Br)c3c2OC(C)(C)C3)CC1` (configuration not stated), the GI50 with HL-60(TB) leukemia is 4.57 µM; with LOX IMVI melanoma, 1.92 µM; in the test on OVCAR-3 ovarian, 3.56 µM; in the test with OVCAR-5 ovarian, 17.7 µM; in the test on OVCAR-8 ovarian it was 10.3 µM; in the test with SN12C renal it was 11.8 µM. Moreover, the results for the GI50 in the test with T-47D breast, in the test on U251 CNS and with UO-31 renal were 12.6 µM, 3.56 µM and 9.24 µM, respectively. The TGI was determined as 18 µM with HL-60(TB) leukemia; 3.36 µM in the test with LOX IMVI melanoma; 17.4 µM in the test on OVCAR-3 ovarian; 43.7 µM in the test on OVCAR-5 ovarian; 42.2 µM in the test on OVCAR-8 ovarian; 31.6 µM with SN12C renal. Besides, the figures for the TGI in the test on T-47D breast, in the test on U251 CNS and with UO-31 renal were 38.5 µM, 12.9 µM and 31 µM, respectively.

For the compound `C/C1=C\[C@@H](O)C(=O)/C=C/C=C\c2csc(n2)[C@@H](C)NC(=O)C[C@@]2(CC1)S(=O)SC(=O)[C@]2(C)O` (some centres not stated), the TGI with HCC-2998 colon is 0.676 µM; with HL-60(TB) leukemia, 7.36 µM; in the test with LOX IMVI melanoma it was 0.0605 µM; in the test with OVCAR-5 ovarian, 0.699 µM and 0.145 µM; with OVCAR-8 ovarian it was 0.0624 µM and 0.0152 µM; in the test with SN12C renal it was 0.0882 µM and 0.0192 µM. In addition, the TGI in the test on T-47D breast was 0.0217 µM; in the test with U251 CNS it was 0.209 µM and 0.267 µM; in the test with UO-31 renal, 0.0889 µM. For the same compound, the GI50 in the test with OVCAR-5 ovarian is 0.0169 µM; with U251 CNS it was 0.0122 µM.

`CCN(CCO)CC(C)Nc1ccc([N+](=O)[O-])c2sc3ccccc3c(=O)c12` (configuration not stated): the GI50 in the test with HL-60(TB) leukemia was 0.917 µM; in the test with LOX IMVI melanoma it was 0.746 µM; in the test on OVCAR-3 ovarian, 2.96 µM; in the test on OVCAR-5 ovarian, 3.68 µM; with OVCAR-8 ovarian it was 1.18 µM; in the test with SN12C renal it was 2.15 µM. Besides, the GI50 is 2.68 µM in the test on T-47D breast, 0.716 µM in the test on U251 CNS and 0.278 µM in the test on UO-31 renal. Besides, the TGI with HL-60(TB) leukemia is 4 µM; in the test on LOX IMVI melanoma it was 2.69 µM; with OVCAR-3 ovarian, 12.3 µM; in the test on OVCAR-5 ovarian, 18.5 µM; in the test with OVCAR-8 ovarian, 4.19 µM; with SN12C renal, 18.4 µM. Moreover, the values for the TGI with T-47D breast, with U251 CNS and in the test with UO-31 renal were 26.8 µM, 3.35 µM and 1.65 µM, respectively.
